Reference: patent publication US20100056525A1, “5- AND 6- SUBSTITUTED BENZIMIDAZOLE THIOPHENE COMPOUNDS” (priority 2006, published 2010)

What was measured:
PLK1 kinase domain = biological target: T1, PLK1 kinase domain (Homo sapiens, UniProt P53350); test: Assay for Inhibition of PLK1 (SPA, 33P-ATP); assay type: biochemical; settings: 2 nM PLK1 kinase domain, 1 μM ATP, 22° C.; read-out: PLK1 pIC50 (converted)
T1 construct: made in house; host or cells: baculovirus infected T. ni cells
Description: A. Preparation of 6× N-Terminal His-Tagged PLK Kinase Domain
All procedures were performed at 4° C. Cells were lysed in 50 mM HEPES, 200 mM NaCl, 50 mM imidazole, 5% glycerol; pH 7.5. The homogenate was centrifuged at 14K rpm in a SLA-1500 rotor for 1 hr and the supernatant filtered through a 1.2 micron filter. The supernatant was loaded onto a Nickel chelating Sepharose (Amersham Pharmacia) column and washed with lysis buffer. Protein was eluted using 20%, 30% and 100% buffer B steps where buffer B was 50 mM HEPES, 200 mM NaCl, 300 mM imidazole, 5% glycerol; pH 7.5. Fractions containing PLK were determined by SDS-PAGE. Fractions containing PLK were diluted five-fold with 50 mM HEPES, 1 mM DTT, 5% glycerol; pH 7.5, then loaded on an SP Sepharose (Amersham Pharmacia) column. After washing the column with 50 mM HEPES, 1 mM DTT, 5% glycerol; pH 7.5, PLK was step eluted with 50 mM HEPES, 1 mM DTT, 500 mM NaCl; 5% glycerol; pH 7.5. PLK was concentrated using a 10 kDa molecular weight cutoff membrane and then loaded onto a Superdex 200 gel filtration (Amersham Pharmacia) column equilibrated in 25 mM HEPES, 1 mM DTT, 500 mM NaCl, 5% glycerol; pH 7.5. Fractions containing PLK were determined by SDS-PAGE. PLK was pooled, aliquoted and stored at −80° C. Samples were quality controlled using mass spectrometry, N-terminal sequencing and amino acid analysis.
B. Enzyme Activity +/− Inhibitors was Determined as Follows:
All measurements were obtained under conditions where signal production increased linearly with time and enzyme. Test compounds were added to white 384-well assay plates (0.1 μL for 10 μL and some 20 μL assays, 1 μL for some 20 μL assays) at variable known concentrations in 100% DMSO. DMSO (1-5% final, as appropriate) and EDTA (65 mM in reaction) were used as controls.
Reaction Mix (10 or 20 μL) was quickly added to each well immediately following addition of enzyme via automated liquid handlers and incubated 1-1.5 h at 22° C. The 20 μL enzymatic reactions were stopped with 50 μL of stop mix (50 mM EDTA, 4.0 mg/mL Streptavidin SPA beads in Standard Dulbecco's PBS (without Mg^2+ and Ca^2+), 50 μM ATP) per well. The 10 μL reactions were stopped with 10 μL of stop mix (50 mM EDTA, 3.0 mg/mL Streptavidin-coupled SPA Imaging Beads (“LeadSeeker”) in Standard Dulbecco's PBS (without Mg^2+ and Ca^2+), 50 μM ATP) per well. Plates were sealed with clear plastic seals, spun at 500×g for 1 min or settled overnight, and counted in Packard TopCount for 30 seconds/well (regular SPA) or imaged using a Viewlux imager (LeadSeeker SPA). Signal above background (EDTA controls) was converted to percent inhibition relative to that obtained in control (DMSO-only) wells.

[1] = tested on: HCT-116 (human colon) cells; test: Cell-Titer Glo Cell Growth Inhibition Assay; assay type: cell-based; settings: HCT-116 cells, 72 h incubation, CellTiter-Glo, read-out: HCT116 IC50
Description: A549-L (human lung), Colo 205 (human colon), HCT-116 (human colon), HT29 (human colon), MX-1 (human breast), SKOV3 (human ovary) and P388 (murine leukemia) cell lines were cultured in RPM11640 containing 10% fetal bovine serum at 37° C. in a 5% CO2 incubator. Cell lines were split into T75 flasks (Falcon #353136) two to three days prior to assay set up at density which yields approximately 70-80% confluency at time of harvest for assay. Cells were harvested using 0.25% trypsin with EDTA (Glibco/Invitrogen #25200-056), Cell counts were performed on cell suspensions using Trypan Blue exclusion staining, cells were then plated in 105 µL of culture media per well at the following densities in 96 well Costar #3916 black flat bottom plates: A549-L 500 cells/well, Colo205 500 cells/well, HCT-116 500 cells/well, HT29 500 cells/well, MX-1 500 cells/well, SKOV3 500 cells/well and P388 250 cells/well. All plates were placed at 5% CO2 37° C. overnight and then test compounds were added the following day. One plate of each cell type was treated with CellTiter-Glo (Promega #G7573) for a day 0 proliferation measurement and read as described below. The test compounds were prepared in clear U bottom polypropylene 96 well plates (Falcon #35-1190 with consecutive two fold dilutions. 9 uL of these dilutions was added into each well of the cell plates. The final concentration of DMSO in all wells was 0.15%. Cells were incubated at 37° C., 5% CO2 for 72 h. Following 72 h of incubation with compounds each plate was developed and read. CellTiter-Glo reagent was added to assay plates using a volume equivalent to the cell culture volume in the wells. Plates were shaken for approximately 2 min and incubated at rt for approximately 15 min and the chemiluminescent signal was read on the Victor V or Envison 2100 reader. […] Concentration of compound that inhibited 50% of cell growth (IC50) was analyzed by 4 or 6 parameter fit of data using XLfit, value of no cell addition was substracted from all samples for background.

T1 sequence (P53350 21-346): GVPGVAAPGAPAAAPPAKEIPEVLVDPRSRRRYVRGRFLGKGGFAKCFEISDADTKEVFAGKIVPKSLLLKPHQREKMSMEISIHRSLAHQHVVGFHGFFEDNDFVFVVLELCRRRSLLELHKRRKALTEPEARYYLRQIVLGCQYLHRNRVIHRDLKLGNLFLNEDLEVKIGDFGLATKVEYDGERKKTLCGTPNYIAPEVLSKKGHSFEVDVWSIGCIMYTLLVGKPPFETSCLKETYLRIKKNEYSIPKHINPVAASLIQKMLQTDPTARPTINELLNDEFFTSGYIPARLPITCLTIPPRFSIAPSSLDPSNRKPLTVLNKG

| SMILES | IC50 (PLK1 kinase domain) [nM] | IC50 [1] [nM] |
| --- | --- | --- |
| C[C@@H](Oc1cc(-n2cnc3cc(-c4ccc(NCCN(C)C)nc4)ccc32)sc1C(N)=O)c1ccccc1C(F)(F)F [Example 25, 5-[5-(6-{[2-(dimethylamino)ethyl]amino}-3-pyridinyl)-1H-benzimidazol-1-yl]-3-({(1R)-1-[2-(trifluoromethyl)phenyl]ethyl}oxy)-2-thiophenecarboxamide] | < 100 | < 500 |
| C[C@@H](Oc1cc(-n2cnc3cc(-c4ccnc(NCCCN5CCN(C)CC5)c4)ccc32)sc1C(N)=O)c1ccccc1Cl [Example 11, 3-{[(1R)-1-(2-chlorophenyl)ethyl]oxy}-5-[5-(2-{[3-(4-methyl-1-piperazinyl)propyl]amino}-4-pyridinyl)-1H-benzimidazol-1-yl]-2-thiophenecarboxamide] | < 100 | < 500 |
| C[C@@H](Oc1cc(-n2cnc3cc(-c4ccnc(NCCN5CCOCC5)c4)ccc32)sc1C(N)=O)c1ccccc1Cl [Example 12, 3-{[(1R)-1-(2-chlorophenyl)ethyl]oxy}-5-[5-(2-{[2-(4-morpholinyl)ethyl]amino}-4-pyridinyl)-1H-benzimidazol-1-yl]-2-thiophenecarboxamide] | < 100 | < 500 |
| C[C@@H](Oc1cc(-n2cnc3cc(-c4ccc(NCCO)nc4)ccc32)sc1C(N)=O)c1ccccc1Cl [Example 28, 3-{[(1R)-1-(2-chlorophenyl)ethyl]oxy}-5-(5-[6-[(2-hydroxyethyl)amino]-3-pyridinyl]-1H-benzimidazol-1-yl)-2-thiophenecarboxamide] | < 100 | < 500 |
| C[C@@H](Oc1cc(-n2cnc3cc(-c4cnc(N(C)CCN(C)C)nc4)ccc32)sc1C(N)=O)c1ccccc1Cl [Example 21, 3-{[(1R)-1-(2-chlorophenyl)ethyl]oxy}-5-(5-{2-[[2-(dimethylamino)ethyl](methyl)amino]-5-pyrimidinyl}-1H-benzimidazol-1-yl)-2-thiophenecarboxamide] | < 100 | < 500 |
| C[C@@H](Oc1cc(-n2cnc3cc(-c4ccnc(NCCO)c4)ccc32)sc1C(N)=O)c1ccccc1Cl [Example 14, 3-{[(1R)-1-(2-chlorophenyl)ethyl]oxy}-5-(5-{2-[(2-hydroxyethyl)amino]-4-pyridinyl}-1H-benzimidazol-1-yl)-2-thiophenecarboxamide] |  | < 500 |
| C[C@@H](Oc1cc(-n2cnc3cc(-c4ccnc(NCCN(C)C)c4)ccc32)sc1C(N)=O)c1ccccc1C(F)(F)F [Example 1, 5-[5-(2-{[2-(Dimethylamino)ethyl]amino}-4-pyridinyl)-1H-benzimidazol-1-yl]-3-({(1R)-1-[2-(trifluoromethyl)phenyl]ethyl}oxy)-2-thiophenecarboxamide] |  | < 500 |

Continued, values first:

| IC50 (PLK1 kinase domain) [nM] | IC50 [1] [nM] | SMILES |
| --- | --- | --- |
| < 100 | < 500 | C[C@@H](Oc1cc(-n2cnc3cc(-c4ccnc(NC(=O)CN)c4)ccc32)sc1C(N)=O)c1ccccc1C(F)(F)F [Example 4, 5-{5-[2-(Glycylamino)-4-pyridinyl]-1H-benzimidazol-1-yl}-3-({(1R)-1-[2-(trifluoromethyl)phenyl]ethyl}oxy)-2-thiophenecarboxamide] |
| < 100 | < 500 | C[C@@H](Oc1cc(-n2cnc3cc(-c4cnc(NCCN(C)C)nc4)ccc32)sc1C(N)=O)c1ccccc1Cl [Example 19, 3-{[(1R)-1-(2-Chlorophenyl)ethyl]oxy}-5-[5-(2-{[2-(dimethylamino)ethyl]amino}-5-pyrimidinyl)-1H-benzimidazol-1-yl]-2-thiophenecarboxamide] |
| < 100 | < 500 | CNCCNc1ccc(-c2ccc3c(c2)ncn3-c2cc(O[C@H](C)c3ccccc3C(F)(F)F)c(C(N)=O)s2)cn1 [Example 26, 5-[5-(6-{[2-(methylamino)ethyl]amino}-3-pyridinyl)-1H-benzimidazol-1-yl]-3-({(1R)-1-[2-(trifluoromethyl)phenyl]ethyl}oxy)-2-thiophenecarboxamide] |
| < 100 | < 500 | CC(C)[C@H](N)C(=O)OCCNc1cc(-c2ccc3c(c2)ncn3-c2cc(O[C@H](C)c3ccccc3Cl)c(C(N)=O)s2)ccn1 [Example 15, 2-({4-[1-(5-(Aminocarbonyl)-4-{[(1R)-1-(2-chlorophenyl)ethyl]oxy}-2-thienyl)-1H-benzimidazol-5-yl]-2-pyridinyl}amino)ethyl L-valinate] |
| < 100 | < 500 | C[C@@H](Oc1cc(-n2cnc3cc(-c4cnc(NCCCN5CCN(C)CC5)nc4)ccc32)sc1C(N)=O)c1ccccc1Cl [Example 20, 3-{[(1R)-1-(2-Chlorophenyl)ethyl]oxy}-5-[5-(2-{[3-(4-methyl-1-piperazinyl)propyl]amino}-5-pyrimidinyl)-1H-benzimidazol-1-yl]-2-thiophenecarboxamide] |
| < 100 | < 500 | C[C@@H](Oc1cc(-n2cnc3cc(-c4ccnc(NCCN(C)C)c4)ccc32)sc1C(N)=O)c1ccccc1Cl [Example 10, 3-{[(1R)-1-(2-chlorophenyl)ethyl]oxy}-5-[5-(2-{[2-(dimethylamino)ethyl]amino}-4-pyridinyl)-1H-benzimidazol-1-yl]-2-thiophenecarboxamide] |
| < 100 | < 500 | CNCCNc1cc(-c2ccc3c(c2)ncn3-c2cc(O[C@H](C)c3ccccc3C(F)(F)F)c(C(N)=O)s2)ccn1 [Example 2, 5-[5-(2-{[2-(Methylamino)ethyl]amino}-4-pyridinyl)-1H-benzimidazol-1-yl]-3-({(1R)-1-[2-(trifluoromethyl)phenyl]ethyl}oxy)-2-thiophenecarboxamide] |
| < 100 | < 500 | C[C@@H](Oc1cc(-n2cnc3cc(-c4cnc(NCCCN(C)C)nc4)ccc32)sc1C(N)=O)c1ccccc1Cl [Example 18, 3-{[(1R)-1-(2-Chlorophenyl)ethyl]oxy}-5-[5-(2-{[3-(dimethylamino)propyl]amino}-5-pyrimidinyl)-1H-benzimidazol-1-yl]-2-thiophenecarboxamide] |
| < 100 | < 500 | C[C@@H](Oc1cc(-n2cnc3cc(-c4cnc(NCCN5CCOCC5)nc4)ccc32)sc1C(N)=O)c1ccccc1Cl [Example 22, 3-{[(1R)-1-(2-chlorophenyl)ethyl]oxy}-5-[5-(2-{[2-(4-morpholinyl)ethyl]amino}-5-pyrimidinyl)-1H-benzimidazol-1-yl]-2-thiophenecarboxamide] |
| < 100 | < 500 | C[C@@H](Oc1cc(-n2cnc3cc(-c4ccc(N(C)CCN(C)C)nc4)ccc32)sc1C(N)=O)c1ccccc1Cl [Example 27, 3-{[(1R)-1-(2-chlorophenyl)ethyl]oxy}-5-(5-[6-[[2-(dimethylamino)ethyl](methyl)amino]-3-pyridinyl]-1H-benzimidazol-1-yl)-2-thiophenecarboxamide] |
